Measurements published in PMC4835877, “HM71224, a novel Bruton’s tyrosine kinase inhibitor, suppresses B cell and monocyte activation and ameliorates arthritis in a mouse model: a potential drug for rheumatoid arthritis” (Arthritis Research & Therapy, 2016).

Legend:
[1] = system: DBA/1 J mice with collagen-induced arthritis; experiment: Collagen-induced arthritis (CIA) model; assay type: in vivo, mouse
Method: All animal experimental protocols were approved by the animal care and use committee of the Hanmi Research Center, and performed in accordance with approved guidelines. Male DBA/1 J mice (9 weeks old; n = 7 per group) were immunized with an emulsion of Complete Freund’s Adjuvant and bovine type II collagen (CII) (total volume, 0.07 mL) via intradermal injection at the base of the tail (day 0). Three weeks later, the mice received a booster immunization comprising bovine CII emulsified in Incomplete Freund’s Adjuvant. […] The arthritis score and body weight were measured three times per week for 2 weeks after administration of the drugs (Additional file 1: Figure S1). The arthritis score was determined by grading each paw from 0 to 4 based on erythema, swelling, and flexion of the joint and was expressed as the sum of the scores of all four paws. Serum levels of IL-6 were measured by Luminex analysis in a bead-based immunoassay (EMD Millipore Corporation). Serum levels of anti-CII and total IgG were measured by ELISA (Chondrex, Seattle, WA, USA; Bethyl Laboratories, Montgomery, TX, USA).
Micro-CT of the hind limbs was performed using a Siemens Inveon Micro-CT/PET scanner (Siemens Medical Solutions, Knoxville, TN, USA).
The hind legs of each mouse were fixed with 10 % formalin, decalcified in 5 % formic acid, and embedded in paraffin. Sections were then cut and stained with hematoxylin and eosin (H&E). The bone erosion index was scored from 0 to 4 according to the following criteria: 0 = no erosion, 1 = mild (focal subchondral erosion), 2 = moderate (multiple subchondral erosions), 3 = high (as above and focal erosion of talus), and 4 = maximum (multiple erosions of tarsal and metatarsal bones).
Figure S1. Experiment design of collagen induced arthritis. Untreated DBA/1J mice (n=7) served as healthy controls (Ctrl). DBA/1J mice (n= 56) were immunized Day 0 and day 21. On day 10 after boosting (i.e. day 31), the induction of CIA was evaluated. […] Immunized mice (n=42) were divided into 6 groups (n=7 in each group). […] CIA, collagen induced arthritis.

[2] = target: JAK3 (Homo sapiens, UniProt P52333); experiment: biochemical
JAK3, sequence (P52333 whole entry): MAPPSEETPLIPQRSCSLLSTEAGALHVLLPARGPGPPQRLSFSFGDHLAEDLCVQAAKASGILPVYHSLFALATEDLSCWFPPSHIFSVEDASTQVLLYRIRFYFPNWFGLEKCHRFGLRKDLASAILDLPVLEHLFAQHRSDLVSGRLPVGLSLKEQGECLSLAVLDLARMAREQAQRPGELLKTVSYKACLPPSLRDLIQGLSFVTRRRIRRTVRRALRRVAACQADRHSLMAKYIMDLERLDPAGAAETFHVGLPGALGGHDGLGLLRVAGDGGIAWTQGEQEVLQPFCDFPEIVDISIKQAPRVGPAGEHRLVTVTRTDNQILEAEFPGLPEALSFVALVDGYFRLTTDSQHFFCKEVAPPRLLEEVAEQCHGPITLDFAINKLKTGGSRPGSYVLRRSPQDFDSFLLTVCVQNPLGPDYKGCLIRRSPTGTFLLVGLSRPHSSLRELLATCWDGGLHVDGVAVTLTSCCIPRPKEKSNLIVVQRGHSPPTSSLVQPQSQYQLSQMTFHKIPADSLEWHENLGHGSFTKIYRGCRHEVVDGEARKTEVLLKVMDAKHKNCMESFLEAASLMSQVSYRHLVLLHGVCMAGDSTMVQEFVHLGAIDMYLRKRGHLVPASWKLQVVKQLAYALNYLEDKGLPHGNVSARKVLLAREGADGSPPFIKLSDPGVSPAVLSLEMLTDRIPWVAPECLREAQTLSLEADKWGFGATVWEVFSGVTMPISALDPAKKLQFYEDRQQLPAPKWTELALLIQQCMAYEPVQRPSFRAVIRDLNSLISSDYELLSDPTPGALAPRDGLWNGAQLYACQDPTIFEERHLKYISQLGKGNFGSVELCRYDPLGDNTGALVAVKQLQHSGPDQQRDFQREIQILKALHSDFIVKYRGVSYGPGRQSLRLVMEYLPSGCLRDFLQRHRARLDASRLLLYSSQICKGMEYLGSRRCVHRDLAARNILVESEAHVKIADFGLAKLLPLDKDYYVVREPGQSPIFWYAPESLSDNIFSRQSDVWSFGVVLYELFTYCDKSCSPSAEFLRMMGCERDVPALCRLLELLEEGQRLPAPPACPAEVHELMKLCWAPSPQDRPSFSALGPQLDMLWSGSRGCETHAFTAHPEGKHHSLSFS

Compound: C=CC(=O)Nc1cccc(Oc2nc(Nc3ccc(N4CCN(C)CC4)cc3)nc3ccoc23)c1 [HM71224]
- Levels of circulating anti-collagen antibodies vs untreated group ([1]; CIA mice): significantly lower
- Serum IL-6 levels vs untreated group ([1]; CIA mice): significantly lower
- Total IgG level ([1]; CIA mice): tended to be lower
- Erosive bone changes and bone loss ([1]; CIA mice, H&E section): markedly reduced erosive bone changes and prevented bone loss
- Weight loss ([1]; dose of 3 mg/kg or higher): prevented weight loss
- AS, arthritis score ([1]; oral 1mg/kg once a day, D0): 1.1±0.7
- Wt, weight ([1]; oral 1mg/kg once a day, D0): 22.7±0.5 gram
- AS, arthritis score ([1]; oral 1mg/kg once a day, D1): 1.1±0.7
- Wt, weight ([1]; oral 1mg/kg once a day, D1): 22.5±0.5 gram
- AS, arthritis score ([1]; oral 1mg/kg once a day, D4): 1.9±0.9
- Wt, weight ([1]; oral 1mg/kg once a day, D4): 22.2±0.6 gram
- AS, arthritis score ([1]; oral 1mg/kg once a day, D6): 2.1±1.1
- Wt, weight ([1]; oral 1mg/kg once a day, D6): 21.9±0.5 gram
- AS, arthritis score ([1]; oral 1mg/kg once a day, D8): 2.9±1.1
- Wt, weight ([1]; oral 1mg/kg once a day, D8): 22.1±0.5 gram
- AS, arthritis score ([1]; oral 1mg/kg once a day, D12): 5.0±1.0
- Wt, weight ([1]; oral 1mg/kg once a day, D12): 21.6±0.5 gram
- AS, arthritis score ([1]; oral 1mg/kg once a day, D13): 6.6±0.7
- Wt, weight ([1]; oral 1mg/kg once a day, D13): 21.4±0.4 gram
- AS, arthritis score ([1]; oral 1mg/kg once a day, D15): 6.6±0.9
- Wt, weight ([1]; oral 1mg/kg once a day, D15): 21.2±0.3 gram
- AS, arthritis score ([1]; oral 3mg/kg once a day, D0): 1.1±0.3
- Wt, weight ([1]; oral 3mg/kg once a day, D0): 22.7±0.4 gram
- AS, arthritis score ([1]; oral 3mg/kg once a day, D1): 1.3±0.7
- Wt, weight ([1]; oral 3mg/kg once a day, D1): 22.3±0.5 gram
- AS, arthritis score ([1]; oral 3mg/kg once a day, D4): 1.9±0.6
- Wt, weight ([1]; oral 3mg/kg once a day, D4): 22.2±0.4 gram
- AS, arthritis score ([1]; oral 3mg/kg once a day, D6): 1.9±0.6
- Wt, weight ([1]; oral 3mg/kg once a day, D6): 22.4±0.4 gram
- AS, arthritis score ([1]; oral 3mg/kg once a day, D8): 2.0±0.7
- Wt, weight ([1]; oral 3mg/kg once a day, D8): 22.5±0.4 gram
- AS, arthritis score ([1]; oral 3mg/kg once a day, D12): 3.1±0.9
- Wt, weight ([1]; oral 3mg/kg once a day, D12): 22.6±0.4 gram
- AS, arthritis score ([1]; oral 3mg/kg once a day, D13): 3.4±1.2
- Wt, weight ([1]; oral 3mg/kg once a day, D13): 22.6±0.4 gram
- AS, arthritis score ([1]; oral 3mg/kg once a day, D15): 3.4±1.4
- Wt, weight ([1]; oral 3mg/kg once a day, D15): 22.5±0.4 gram
- AS, arthritis score ([1]; oral 10mg/kg once a day, D0): 1.1±0.6
- Wt, weight ([1]; oral 10mg/kg once a day, D0): 23.0±0.2 gram
- AS, arthritis score ([1]; oral 10mg/kg once a day, D1): 0.9±0.3
- Wt, weight ([1]; oral 10mg/kg once a day, D1): 22.8±0.3 gram
- AS, arthritis score ([1]; oral 10mg/kg once a day, D4): 0.4±0.2
- Wt, weight ([1]; oral 10mg/kg once a day, D4): 23.2±0.3 gram
- AS, arthritis score ([1]; oral 10mg/kg once a day, D6): 0.6±0.4
- Wt, weight ([1]; oral 10mg/kg once a day, D6): 23.0±0.3 gram
- AS, arthritis score ([1]; oral 10mg/kg once a day, D8): 0.6±0.3
- Wt, weight ([1]; oral 10mg/kg once a day, D8): 23.2±0.3 gram
- AS, arthritis score ([1]; oral 10mg/kg once a day, D12): 1.0±0.4
- Wt, weight ([1]; oral 10mg/kg once a day, D12): 23.5±0.3 gram
- AS, arthritis score ([1]; oral 10mg/kg once a day, D13): 0.7±0.4
- Wt, weight ([1]; oral 10mg/kg once a day, D13): 23.8±0.3 gram
- AS, arthritis score ([1]; oral 10mg/kg once a day, D15): 0.7±0.4
- Wt, weight ([1]; oral 10mg/kg once a day, D15): 23.9±0.3 gram
- AS, arthritis score ([1]; oral 30mg/kg once a day, D0): 1.1±0.5
- Wt, weight ([1]; oral 30mg/kg once a day, D0): 22.6±0.5 gram
- AS, arthritis score ([1]; oral 30mg/kg once a day, D1): 0.9±0.3
- Wt, weight ([1]; oral 30mg/kg once a day, D1): 22.0±0.5 gram
- AS, arthritis score ([1]; oral 30mg/kg once a day, D4): 0.3±0.2
- Wt, weight ([1]; oral 30mg/kg once a day, D4): 22.1±0.4 gram
- AS, arthritis score ([1]; oral 30mg/kg once a day, D6): 0.3±0.2
- Wt, weight ([1]; oral 30mg/kg once a day, D6): 22.1±0.4 gram
- AS, arthritis score ([1]; oral 30mg/kg once a day, D8): 0.4±0.2
- Wt, weight ([1]; oral 30mg/kg once a day, D8): 22.4±0.4 gram
- AS, arthritis score ([1]; oral 30mg/kg once a day, D12): 0.4±0.2
- Wt, weight ([1]; oral 30mg/kg once a day, D12): 22.5±0.4 gram
- AS, arthritis score ([1]; oral 30mg/kg once a day, D13): 0.4±0.3
- Wt, weight ([1]; oral 30mg/kg once a day, D13): 22.9±0.5 gram
- AS, arthritis score ([1]; oral 30mg/kg once a day, D15): 0.3±0.2
- Wt, weight ([1]; oral 30mg/kg once a day, D15): 22.8±0.4 gram
- Arthritis score vs untreated CIA mice ([1]; oral once a day for 2 weeks, P < 0.05 at 10 mg/kg, P < 0.01 at 30 mg/kg): lower arthritis scores than untreated CIA mice
- IC50 [2]: 14.6 nM
